Assay results as given in patent publication EP4667458A1 (Kanaph Therapeutics Inc., priority 2023, dated 2024).
Where two headings read alike, the source gives them in different places.

Target: T1, KRAS^G12C::SOS1 (Homo sapiens, UniProt Q07889)
T1 sequence (Q07889 1-1333): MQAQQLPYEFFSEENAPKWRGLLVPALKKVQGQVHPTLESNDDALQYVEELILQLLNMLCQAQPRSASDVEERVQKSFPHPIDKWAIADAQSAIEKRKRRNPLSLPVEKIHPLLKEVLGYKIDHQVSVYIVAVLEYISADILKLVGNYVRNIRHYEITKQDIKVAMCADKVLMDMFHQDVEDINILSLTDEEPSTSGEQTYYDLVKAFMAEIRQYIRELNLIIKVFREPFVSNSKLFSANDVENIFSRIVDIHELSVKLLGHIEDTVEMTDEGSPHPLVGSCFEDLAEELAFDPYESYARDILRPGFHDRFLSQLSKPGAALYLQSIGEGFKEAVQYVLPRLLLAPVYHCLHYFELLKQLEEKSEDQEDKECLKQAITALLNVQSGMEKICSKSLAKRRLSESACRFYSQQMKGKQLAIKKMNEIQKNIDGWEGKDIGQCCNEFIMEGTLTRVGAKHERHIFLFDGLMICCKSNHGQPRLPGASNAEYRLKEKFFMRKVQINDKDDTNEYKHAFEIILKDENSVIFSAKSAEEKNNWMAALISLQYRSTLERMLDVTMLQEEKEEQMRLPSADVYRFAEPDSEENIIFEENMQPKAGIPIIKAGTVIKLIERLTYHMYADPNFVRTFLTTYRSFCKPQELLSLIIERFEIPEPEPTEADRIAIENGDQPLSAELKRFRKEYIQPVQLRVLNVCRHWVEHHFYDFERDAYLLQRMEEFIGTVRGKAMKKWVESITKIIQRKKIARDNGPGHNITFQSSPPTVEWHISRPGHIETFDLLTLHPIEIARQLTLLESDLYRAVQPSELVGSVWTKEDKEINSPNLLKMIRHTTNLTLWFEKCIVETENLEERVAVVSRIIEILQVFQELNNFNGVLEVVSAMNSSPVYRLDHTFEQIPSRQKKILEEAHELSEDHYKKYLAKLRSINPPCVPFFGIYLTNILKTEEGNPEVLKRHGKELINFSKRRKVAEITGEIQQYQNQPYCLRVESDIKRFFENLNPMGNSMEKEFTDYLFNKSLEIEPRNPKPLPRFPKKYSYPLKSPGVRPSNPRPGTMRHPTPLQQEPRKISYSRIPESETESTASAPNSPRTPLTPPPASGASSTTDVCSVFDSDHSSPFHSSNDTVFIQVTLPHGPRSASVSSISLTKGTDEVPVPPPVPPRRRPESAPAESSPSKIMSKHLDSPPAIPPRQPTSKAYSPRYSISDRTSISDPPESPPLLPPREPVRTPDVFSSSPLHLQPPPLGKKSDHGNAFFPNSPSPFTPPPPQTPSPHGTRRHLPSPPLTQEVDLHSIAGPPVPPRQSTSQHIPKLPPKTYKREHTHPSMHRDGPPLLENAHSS
Assay: KRAS G12C::SOS1 protein-protein interaction (PPI) inhibition assay (HTRF binding kit)
Method: Protein-protein interaction between SOS1 and KRAS^G12C was detected using KRAS G12C/SOS1 binding kit from CISBIO (64KRASG12PEH, CISBIO, FRANCE) according to the manufacturer's assay method. Briefly, the maximum concentration of an inhibitor sample was set to be 3 µM, and the inhibitor sample was diluted 7 times by 1/3, and samples having a total of 8 concentrations were prepared. In HTRF (Homogeneous Time-Resolved Fluorescence) exclusive 96-well low-volume white plate (66PL96005, CISBIO, FRANCE), 2 µL of an inhibitor sample prepared for each concentration, 5 µL of a mixed solution of Tag1-labeled KRAS^G12C protein and GTP diluted with the dilution solution provided by the manufacturer, and 5 µL of Tag2 labeled SOS1 protein were mixed, and added with 8 µL of a diluted solution where anti-Tag1 KRAS^G12C XL665 (HTRF acceptor) labeled antibody and anti-Tag2 SOS1 Terbium cryptate (HTRF donor) labeled antibody were mixed in an equal ratio and incubated at room temperature for 2 h.

Row | Molecule | IC50 [nM] | IC50 (read-out: KRAS ^G12C::SOS1 PPI assay (IC50 range, Grade), maximum concentration 3 µM, 8 concentrations, three replicates) [nM]
1 | C[C@@H](NC(=O)c1ccc(=O)n(-c2ccccc2F)n1)c1cccc(F)c1Cl [Example 261, N-[(1R)-1-(2-chloro-3-fluoro-phenyl)ethyl]-1-(2-fluorophenyl)-6-oxo-pyridazine-3-carboxamide] | > 10000 | –
2 | C[C@@H](NC(=O)c1ccc(=O)n(-c2ccccc2F)c1)c1cccc(C(F)(F)CO)c1F [Example 181, N-[(1R)-1-[3-(1,1-difluoro-2-hydroxy-ethyl)-2-fluoro-phenyl]ethyl]-1-(2-fluorophenyl)-6-oxo-pyridine-3-carboxamide] | < 1000 | –
3 | COc1ccccc1-n1cc(C(=O)N[C@H](C)c2cc(N)cc(C(F)(F)F)c2)ccc1=O [Example 168, N-[(1R)-1-[3-amino-5-(trifluoromethyl)phenyl]ethyl]-1-(2-methoxyphenyl)-6-oxo-pyridine-3-carboxamide] | < 1000 | –
4 | C[C@@H](NC(=O)c1cc(N)c(=O)n(-c2ccccc2)n1)c1cc(N)cc(C(F)(F)F)c1 [Example 213, 5-amino-N-[(1R)-1-[3-amino-5-(trifluoromethyl)phenyl]ethyl]-6-oxo-1-phenyl-pyridazine-3-carboxamide] | < 1000 | –
5 | COc1cccc(-n2cc(C(=O)N[C@H](C)c3cc(N)cc(C(F)(F)F)c3)ccc2=O)c1F [Example 187, N-[(1R)-1-[3-amino-5-(trifluoromethyl)phenyl]ethyl]-1-(2-fluoro-3-methoxy-phenyl)-6-oxo-pyridine-3-carboxamide] | < 1000 | –
6 | N-[(1R)-1-[3-amino-5-(trifluoromethyl)phenyl]ethyl]-1-(4-fluorophenyl)-6-oxo-pyridazine-3-carboxamide [Example 172] | – | < 1000
7 | COc1cccc(-n2cc(C(=O)N[C@H](C)c3cccc(C(F)(F)CO)c3F)ccc2=O)c1F [Example 186, N-[(1R)-1-[3-(1,1-difluoro-2-hydroxy-ethyl)-2-fluoro-phenyl]ethyl]-1-(2-fluoro-3-methoxyphenyl)-6-oxo-pyridine-3-carboxamide] | < 1000 | –
8 | CNC(=O)c1cccc(-n2nc(C(=O)N[C@H](C)c3cc(N)cc(C(F)(F)F)c3)ccc2=O)c1 [Example 253, N-[(1R)-1-[3-amino-5-(trifluoromethyl)phenyl]ethyl]-1-[3-(methylcarbamoyl)phenyl]-6-oxo-pyridazine-3-carboxamide] | < 1000 | –
9 | C[C@@H](NC(=O)c1ccc(=O)n(-c2ccncc2)c1)c1cc(N)cc(C(F)(F)F)c1 [Example 163, N-[(1R)-1-[3-amino-5-(trifluoromethyl)phenyl]ethyl]-6-oxo-1-(4-pyridyl)pyridine-3-carboxamide] | < 1000 | –

The remaining lines, values ahead:

Row | IC50 [nM] | IC50 (read-out: KRAS ^G12C::SOS1 PPI assay (IC50 range, Grade), maximum concentration 3 µM, 8 concentrations, three replicates) [nM] | Molecule
10 | < 1000 | – | CCn1nncc1-c1cccc(-n2nc(C(=O)N[C@H](C)c3cc(N)cc(C(F)(F)F)c3)ccc2=O)c1 [Example 327, N-[(1R)-1-[3-amino-5-(trifluoromethyl)phenyl]ethyl]-1-[3-(3-ethyltriazol-4-yl)phenyl]-6-oxo-pyridazine-3-carboxamide]
11 | < 1000 | – | CNCc1ccccc1-c1ccc([C@@H](C)NC(=O)c2nn(-c3cnn(C)c3)c(=O)c3ccsc23)s1 [Example 290, N-[(1R)-1-[5-[2-(methylaminomethyl)phenyl]-2-thienyl]ethyl]-5-(1-methylpyrazol-4-yl)-4-oxo-thieno[2,3-d]pyridazine-7-carboxamide]
12 | < 1000 | – | C[C@@H](NC(=O)c1ccc(=O)n(-c2cccc(-c3ccccn3)c2)n1)c1cc(N)cc(C(F)(F)F)c1 [Example 325, N-[(1R)-1-[3-amino-5-(trifluoromethyl)phenyl]ethyl]-6-oxo-1-[3-(2-pyridyl)phenyl]pyridazine-3-carboxamide]
13 | < 1000 | – | C[C@@H](NC(=O)c1ccc(=O)n(-c2ccc(F)cc2F)n1)c1cccc(C(F)(F)CO)c1F [Example 352, N-[(1R)-1-[3-(1,1-difluoro-2-hydroxy-ethyl)-2-fluoro-phenyl]ethyl]-1-(2,4-difluorophenyl)-6-oxo-pyridazine-3-carboxamide]
14 | < 1000 | – | CNCc1ccccc1-c1ccc([C@@H](C)NC(=O)c2ccc(=O)n(-c3cnn(C)c3)n2)s1 [Example 278, N-[(1R)-1-[5-[2-(methylaminomethyl)phenyl]-2-thienyl]ethyl]-1-(1-methylpyrazol-4-yl)-6-oxo-pyridazine-3-carboxamide]
15 | < 1000 | – | CNCc1cc(Cl)ccc1-c1ccc([C@@H](C)NC(=O)c2ccc(=O)n(-c3ccccc3F)n2)s1 [Example 281, N-[(1R)-1-[5-[4-chloro-2-(methylaminomethyl)phenyl]-2-thienyl]ethyl]-1-(2-fluorophenyl)-6-oxo-pyridazine-3-carboxamide]
16 | < 1000 | – | C[C@@H](NC(=O)c1ccc(=O)n(-c2cccc(-c3ccn(C)n3)c2)n1)c1cccc(C(F)(F)CO)c1F [Example 330, N-[(1R)-1-[3-(1,1-difluoro-2-hydroxy-ethyl)-2-fluoro-phenyl]ethyl]-1-[3-(1-methylpyrazol-3-yl)phenyl]-6-oxo-pyridazine-3-carboxamide]
17 | < 1000 | – | C[C@@H](NC(=O)c1nn(-c2ccccc2F)c(=O)c2ccsc12)c1cc(N)cc(C(F)(F)F)c1 [Example 309, N-[(1R)-1-[3-amino-5-(trifluoromethyl)phenyl]ethyl]-5-(2-fluorophenyl)-4-oxo-thieno[2,3-d]pyridazine-7-carboxamide]
18 | < 1000 | – | C[C@@H](NC(=O)c1nn(-c2ccccc2F)c(=O)cc1N)c1cccc(C(F)(F)CO)c1F [Example 379, 4-amino-N-[(1R)-1-[3-(1,1-difluoro-2-hydroxy-ethyl)-2-fluorophenyl]ethyl]-1-(2-fluorophenyl)-6-oxo-pyridazine-3-carboxamide]
19 | < 1000 | – | CNCc1ccsc1-c1cccc([C@@H](C)NC(=O)c2ccc(=O)n(-c3ccccc3F)n2)c1 [Example 294, 1-(2-fluorophenyl)-N-[(1R)-1-[3-[3-(methylaminomethyl)-2-thienyl]phenyl]ethyl]-6-oxo-pyridazine-3-carboxamide]
20 | < 1000 | – | C[C@@H](NC(=O)c1ccc(=O)n(-c2ccccc2F)n1)c1ccc(-c2cc(F)ccc2CNCCO)s1 [Example 300, N-[(1R)-1-[5-[5-fluoro-2-[(2-hydroxyethylamino)methyl]phenyl]-2-thienyl]ethyl]-1-(2-fluorophenyl)-6-oxo-pyridazine-3-carboxamide]
21 | < 1000 | – | C[C@@H](NC(=O)c1ccc(=O)n(-c2cc(-c3cnnn3C)ccc2F)n1)c1cccc(C(F)(F)CO)c1F [Example 372, N-[(1R)-1-[3-(1,1-difluoro-2-hydroxy-ethyl)-2-fluoro-phenyl]ethyl]-1-[2-fluoro-5-(3-methyltriazol-4-yl)phenyl]-6-oxo-pyridazine-3-carboxamide]
22 | < 1000 | – | CNCc1cc(F)c(F)cc1-c1ccc([C@@H](C)NC(=O)c2ccc(=O)n(-c3cccnc3F)n2)s1 [Example 401, N-[(1R)-1-(5-{4,5-difluoro-2-[(methylamino)methyl]phenyl}thiophen-2-yl)ethyl]-1-(2-fluoropyridin-3-yl)-6-oxo-1,6-dihydropyridazine-3-carboxamide]
23 | < 1000 | – | C[C@@H](NC(=O)c1ccc(=O)n(-c2cccc(-c3ccnn3C)c2)n1)c1cccc(C(F)(F)CO)c1F [Example 332, N-[(1R)-1-[3-(1,1-difluoro-2-hydroxy-ethyl)-2-fluoro-phenyl]ethyl]-1-[3-(2-methylpyrazol-3-yl)phenyl]-6-oxo-pyridazine-3-carboxamide]
